According to patent publication US20200255807A1, “IN VITRO PROPAGATION OF PRIMARY CANCER CELLS” (University of Cape Town, priority 2017, published 2020):

B1: Papain: protease enzyme (10 mg/ml) added with collagenase II to the isolation buffer for digesting tumour biopsy tissue (protein, UniProt P00784 134-345, looked up)
Papain: IPEYVDWRQKGAVTPVKNQGSCGSCWAFSAVVTIEGIIKIRTGNLNEYSEQELLDCDRRSYGCNGGYPWSALQLVAQYGIHYRNTYPYEGVQRYCRSREKGPYAAKTDGVRQVQPYNEGALLYSIANQPVSVVLEAAGKDFQLYRGGIFVGPCGNKVDHAVAAVGYGPNYILIKNSWGTGWGENGYIRIKRGTGNSYGVCGLYTSSFYPVKN

System: primary breast cancer cells
Test: Isolation of primary breast cancer cells from biopsy samples by digestion with collagenase II plus an additional enzyme (cell yield and viability)
Type: cell-based, human
Conditions: for Mean fold increase in cell number (collagenase II = 1): additional enzyme used in conjunction with 5 μg/ml collagenase II, 45 min at 37° C., compared to collagenase II alone
Experimental: A fresh primary breast cancer tumour biopsy sample (10-200 mg of tissue) was placed in 5 ml Hanks Balanced Salts (HBSS; Lonza, Germany; pH=7.5) on ice and it was transported immediately to the laboratory. The biopsy sample was weighed and then cut into 1 mm by 1 mm pieces using a scalpel in a BSL2 cabinet. The cut pieces were placed in 1 ml HBSS containing 5 μg/ml collagenase II (Ambion, USA) with or without 5 U/ml hyaluronidase, dispase II or papain (10 mg/ml) and the tissue was digested by incubation at 37° C. with rotation for 45 min. After the incubation time, a […] cell strainer (Becton Dickinson, USA) was placed into a 50 ml tube. The undigested material was pipetted up and down 10 times and then placed onto the cell strainer. The cell strainer was washed with 10 ml of HBSS and the cells were pelleted at 500×g for 5 min. The pelleted cells were then washed with an additional 10 ml of HBSS.
The pelleted cells were re-suspended in DMEM/F12 containing 10% human A/B serum (Western Province Blood Transfusion Services), 100 IU penicillin/streptomycin (Lonza, Germany), 0.1 mM sodium pyruvate (Lonza, Germany), […] (Sigma, Germany), […] (Sigma, Germany), 5 mM ethanolamine (Sigma, Germany), 5 μg/ml selenium (Sigma, Germany) and 10 nM estradiol (Sigma, Germany). The cells were then plated into a multi well plate or dish, which was dependent on the cell number. The breast cancer cells were incubated at 37° C. for 2 days and the medium was replaced with fresh medium without 10 nM estradiol, but with 100 nM cortisol (Sigma, Germany). The medium was replaced every 2 days with fresh medium containing half the concentration of cortisol used on the previous day. When the cells were confluent they were split using a standard procedure (trypsin) into a larger culture vessel.

Molecule	Mean fold increase in cell number (collagenase II = 1) (breast biopsy samples)	Mean fold increase in cell number (collagenase II = 1) (breast biopsy samples, listed as hyaluronidase)	Mean cell viability (additional enzyme used in conjunction with collagenase II for cell isolation, breast biopsy samples (Table 1))	mean viability of the cells (enzyme used in conjunction with collagenase II, breast biopsy samples)	Mean fold increase in cell number (collagenase II = 1) (breast biopsy samples, listed as papain)
Hyaluronidase	2.7 (SD = 1.2-4.5) fold	2.7 fold	69%	69%	–
B1	0.7 (SD = 0.4-0.9) fold	–	–	–	0.7 fold
